Format in all cases: functional
In one experiment the test system is HeLa. As to the kind of experiment: Antiproliferative activity against human HeLa cells assessed as reduction in net protein increase after 48 hrs by SRB assay. For orientation: Sulforhodamine B stains cellular protein and so reports cell mass.
Experiment [1] can be described thus: Antiproliferative activity against human IMR32 cells assessed as reduction in net protein increase after 48 hrs by SRB assay. Conditions: IMR-32, 48 h.
The test system of another experiment is MDA-MB-231. The experiment is described as follows: Antiproliferative activity against human MDA-MB-231 cells assessed as reduction in net protein increase after 48 hrs by SRB assay. The following applies: MDA-MB-231, 48 h.
A short description of experiment [2]: Antiproliferative activity against human MiaPaCa cells assessed as reduction in net protein increase after 48 hrs by SRB assay. The following applies: MIA PaCa-2, 48 h.

GI50 data for 16 compounds are collected here from ChEMBL document CHEMBL3351254, “Rational design, synthesis and anti-proliferative evaluation of novel 1,4-benzoxazine-[1,2,3]triazole hybrids” (2015).

For the compound `O=C1COc2ccccc2N1CCCn1cc(-c2ccccc2)nn1`, the 50% growth inhibitory concentration (GI50) with HeLa came out at 9000 nM; in experiment [1] it was 370 nM; with MDA-MB-231, 4900 nM; in experiment [2], 94000 nM.

With `Cc1ccc(-c2cn(CCCN3C(=O)COc4ccccc43)nn2)cc1`, the GI50 was 14300 nM in the experiment on HeLa, 4400 nM in experiment [1], 1120 nM in the experiment with MDA-MB-231 and greater than 100000 nM in experiment [2].

As to `CCCCCc1ccc(-c2cn(CCCN3C(=O)COc4ccccc43)nn2)cc1`, the GI50 with HeLa was greater than 100000 nM; in experiment [1], 43500 nM; in the experiment with MDA-MB-231, 5000 nM; in experiment [2], greater than 100000 nM.

In the case of `COc1ccc2cc(-c3cn(CCCN4C(=O)COc5ccccc54)nn3)ccc2c1`, the GI50 with HeLa is greater than 100000 nM; in experiment [1], 1300 nM; with MDA-MB-231 it was 5000 nM; in experiment [2], greater than 100000 nM.

Turning to `O=C1COc2ccccc2N1CCCn1cc(-c2cc3ccccc3c3ccccc23)nn1`, the GI50 in the experiment on HeLa is greater than 100000 nM; in experiment [1] it was 130 nM; in the experiment with MDA-MB-231, greater than 100000 nM; in experiment [2] it was 8400 nM.

On to `COc1ccc(-c2cn(CCCN3C(=O)COc4ccccc43)nn2)cc1`, for which the GI50 in the experiment with HeLa was determined as 4900 nM; in experiment [1] it was 49900 nM; in the experiment on MDA-MB-231, 41500 nM; in experiment [2] it was 15700 nM.

In the case of `CCCCCCc1cn(CCCN2C(=O)COc3ccccc32)nn1`, the GI50 turned out to be 100 nM with HeLa, 710 nM in experiment [1], 1100 nM in the experiment with MDA-MB-231 and 150 nM in experiment [2].

Take `O=C1COc2ccccc2N1CCCn1cc(-c2ccccn2)nn1`: the GI50 in the experiment on HeLa is 10000 nM; in experiment [1], 2000 nM; in the experiment on MDA-MB-231 it was 4800 nM; in experiment [2], 5800 nM.

As to `O=C1COc2ccccc2N1CCCn1cc(-c2cccnc2)nn1`, the GI50 was greater than 100000 nM in the experiment with HeLa, 860 nM in experiment [1], 3000 nM in the experiment with MDA-MB-231 and 8200 nM in experiment [2].

In the case of `O=C1COc2ccccc2N1CCCn1cc(CO)nn1`, the GI50 amounted to 7300 nM in the experiment with HeLa, 5500 nM in experiment [1], 5700 nM in the experiment on MDA-MB-231 and 1010 nM in experiment [2].

`CCCCc1cn(CCCN2C(=O)COc3ccccc32)nn1`: the GI50 in the experiment with HeLa is 1020 nM; in experiment [1], 5700 nM; in the experiment on MDA-MB-231, 3600 nM; in experiment [2], 2500 nM.

On to `CCCc1cn(CCCN2C(=O)COc3ccccc32)nn1`, for which the GI50 is 23200 nM with HeLa, 1400 nM in experiment [1], 1100 nM with MDA-MB-231 and 2600 nM in experiment [2].

Turning to `O=C1COc2ccccc2N1CCCn1cc(CCCCl)nn1`, the GI50 in the experiment with HeLa was 100 nM; in experiment [1] it was 200 nM; in the experiment with MDA-MB-231, 6400 nM; in experiment [2] it was 12500 nM.

`O=C1COc2ccccc2N1CCCn1cc(C2(O)CCCCC2)nn1`: the GI50 was found to be 2000 nM in the experiment with HeLa, 1200 nM in experiment [1], 1200 nM in the experiment with MDA-MB-231 and 2500 nM in experiment [2].

As to `COc1cccc2c1C(=O)c1c(O)c3c(c(O)c1C2=O)C[C@@](O)(C(=O)CO)C[C@@H]3O[C@H]1C[C@H](N)[C@H](O)[C@H](C)O1` [DOXORUBICIN], the GI50 with HeLa worked out at 73 nM; in experiment [1], 23 nM; with MDA-MB-231 it was 85 nM; in experiment [2], 97 nM.

On to `CC(=O)O[C@H]1C(=O)[C@@]2(C)[C@H]([C@H](OC(=O)c3ccccc3)[C@]3(O)C[C@H](OC(=O)[C@H](O)[C@@H](NC(=O)c4ccccc4)c4ccccc4)C(C)=C1C3(C)C)[C@]1(OC(C)=O)CO[C@@H]1C[C@@H]2O` [PACLITAXEL], for which the 50% growth inhibitory concentration (GI50) is 25 nM with HeLa, 75 nM in experiment [1], 91 nM in the experiment with MDA-MB-231 and 56 nM in experiment [2].

As usually defined, the GI50 is the concentration at which growth is held to half of that of the control.
